Assay results: article PMC11800161 (ACS Omega, 2025)
Values after ≈ are worked out from the molar mass of the structure shown.

Columns and labels:
[1] = system: Saccharomyces cerevisiae (ATCC-9763); test: Broth microdilution MIC/MFC, S. cerevisiae; assay type: cell-based; conditions: ATCC9763
[2] = system: Bacillus pumilis (MTCC- 2296); test: Broth microdilution MIC/MBC, B. pumilis; assay type: cell-based; conditions: for potency relative to penicillin G (times greater): B. pumilis, by MIC; for MIC: Bacillus, MTCC2296
S. faecalis (MTCC- 0459) = test: Broth microdilution MIC/MBC, S. faecalis; assay type: cell-based, Streptococcus faecalis; conditions: for MIC: Enterococcus faecalis, MTCC0459; for antibacterial potency relative to penicillin G (times greater): by MIC, organism not named in the sentence (values match S. faecalis)
E. coli (ATCC- 25955) = test: microbe, parasite or virus in culture; assay type: cell-based; conditions: Escherichia coli, ATCC25955
[3] = system: hemolytic activity of E. coli; test: Hemolysin inhibition assay, E. coli; assay type: cell-based; conditions: at 75%MBC, control 100% hemolysis
[4] = system: hemolytic activity of S. faecalis; test: Hemolysin inhibition assay, S. faecalis; assay type: cell-based; conditions: at 75%MBC, control 100% hemolysis
[5] = system: Enterobacter cloacae (ATCC- 23355); assay type: cell-based; conditions: E. cloacae
[6] = system: Candida albicans (ATCC-10231); test: Broth microdilution MIC/MFC, C. albicans; assay type: cell-based; conditions: ATCC10231
E. coli MurA = E. coli MurA (Escherichia coli, UniProt P0A749); test: MurA enzyme inhibition assay; assay type: biochemical
E. coli MurA, sequence (P0A749 whole entry): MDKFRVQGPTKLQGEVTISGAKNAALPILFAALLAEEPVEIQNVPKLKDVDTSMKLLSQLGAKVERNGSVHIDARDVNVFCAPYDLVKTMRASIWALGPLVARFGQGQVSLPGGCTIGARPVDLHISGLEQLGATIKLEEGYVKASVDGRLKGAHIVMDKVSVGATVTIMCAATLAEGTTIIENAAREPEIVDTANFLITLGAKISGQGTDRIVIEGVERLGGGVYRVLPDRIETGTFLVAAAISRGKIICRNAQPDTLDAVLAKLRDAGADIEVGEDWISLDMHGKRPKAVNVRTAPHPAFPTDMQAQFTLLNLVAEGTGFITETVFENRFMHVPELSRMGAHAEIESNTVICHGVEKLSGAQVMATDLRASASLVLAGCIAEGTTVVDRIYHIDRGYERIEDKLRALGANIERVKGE

MIC [2] | MIC (S. faecalis (MTCC- 0459)) | Structure (SMILES) | potency relative to penicillin G (times greater) [2] | further results
 |  | Nc1nn2c(-c3ccc(Cl)cc3Cl)cc(-c3ccc(OCc4ccccc4)cc3)nc2c1N=Nc1ccc(F)cc1 [Compound 4d, 5-(4-(Benzyloxy)phenyl)-7-(2,4-dichlorophenyl)-3-((4-fluorophenyl)diazenyl)pyrazolo[1,5-a]pyrimidin-2-amine] |  | MIC [1]: 15.6 µg/mL (≈ 26.7 µM)
7.81 µg/mL (≈ 14.4 µM) | 15.6 µg/mL (≈ 28.9 µM) | COc1ccc(N=Nc2c(N)nn3c(-c4ccc(C)cc4)cc(-c4ccc(OCc5ccccc5)cc4)nc23)cc1 [Compound 4c, 5-(4-(Benzyloxy)phenyl)-3-((4-methoxyphenyl)diazenyl)-7-(p-tolyl)pyrazolo[1,5-a]pyrimidin-2-amine] | 8 fold | MIC (E. coli (ATCC- 25955)): 1.95 µg/mL (≈ 3.61 µM); hemolysis [3]: 7.1%; hemolysis [4]: 3.3%
3.91 µg/mL (≈ 7.75 µM) | 1.95 µg/mL (≈ 3.87 µM) | Nc1nn2c(-c3ccco3)cc(-c3ccc(OCc4ccccc4)cc3)nc2c1N=Nc1ccc(F)cc1 [Compound 4g, 5-(4-(Benzyloxy)phenyl)-3-((4-fluorophenyl)diazenyl)-7-(furan-2-yl)pyrazolo[1,5-a]pyrimidin-2-amine] | 16 fold | antibacterial potency relative to penicillin G (times greater) (S. faecalis (MTCC- 0459)): 16 times
15.6 µg/mL (≈ 29.7 µM) | 15.6 µg/mL (≈ 29.7 µM) | Cc1ccc(N=Nc2c(N)nn3c(-c4ccc(C)cc4)cc(-c4ccc(OCc5ccccc5)cc4)nc23)cc1 [Compound 4b, 5-(4-(Benzyloxy)phenyl)-7-(p-tolyl)-3-(p-tolyldiazenyl)pyrazolo[1,5-a]pyrimidin-2-amine] | 4 fold | MIC (E. coli (ATCC- 25955)): 1.95 µg/mL (≈ 3.72 µM)
7.81 µg/mL (≈ 13.1 µM) | 15.6 µg/mL (≈ 26.2 µM) | COc1ccc(N=Nc2c(N)nn3c(-c4ccc(Cl)cc4Cl)cc(-c4ccc(OCc5ccccc5)cc4)nc23)cc1 [Compound 4f, 5-(4-(Benzyloxy)phenyl)-7-(2,4-dichlorophenyl)-3-((4-methoxyphenyl)diazenyl)pyrazolo[1,5-a]pyrimidin-2-amine] | 8 fold | 
 | 7.81 µg/mL (≈ 13.5 µM) | Cc1ccc(N=Nc2c(N)nn3c(-c4ccc(Cl)cc4Cl)cc(-c4ccc(OCc5ccccc5)cc4)nc23)cc1 [Compound 4e, 5-(4-(Benzyloxy)phenyl)-7-(2,4-dichlorophenyl)-3-(p-tolyldiazenyl)pyrazolo[1,5-a]pyrimidin-2-amine] |  | antibacterial potency relative to penicillin G (times greater) (S. faecalis (MTCC- 0459)): 4 times
15.6 µg/mL (≈ 30.2 µM) |  | COc1ccc(N=Nc2c(N)nn3c(-c4ccco4)cc(-c4ccc(OCc5ccccc5)cc4)nc23)cc1 [Compound 4i, 5-(4-(Benzyloxy)phenyl)-7-(furan-2-yl)-3-((4-methoxyphenyl)diazenyl)pyrazolo[1,5-a]pyrimidin-2-amine] | 4 fold | MBC/MIC [5]: 8; MIC [6]: 15.6 µg/mL (≈ 30.2 µM)
3.91 µg/mL (≈ 7.81 µM) | 15.6 µg/mL (≈ 31.2 µM) | Cc1ccc(N=Nc2c(N)nn3c(-c4ccco4)cc(-c4ccc(OCc5ccccc5)cc4)nc23)cc1 [Compound 4h, 5-(4-(Benzyloxy)phenyl)-7-(furan-2-yl)-3-(p-tolyldiazenyl)pyrazolo[1,5-a]pyrimidin-2-amine] | 16 fold | MIC [1]: 15.6 µg/mL (≈ 31.2 µM)
 | 3.91 µg/mL (≈ 7.4 µM) | Cc1ccc(-c2cc(-c3ccc(OCc4ccccc4)cc3)nc3c(N=Nc4ccc(F)cc4)c(N)nn23)cc1 [Compound 4a, 5-(4-(Benzyloxy)phenyl)-3-((4-fluorophenyl)diazenyl)-7-(p-tolyl)pyrazolo[1,5-a]pyrimidin-2-amine] |  | antibacterial potency relative to penicillin G (times greater) (S. faecalis (MTCC- 0459)): 8 times
62.5 µg/mL (≈ 187 µM) | 31.5 µg/mL (≈ 94.2 µM) | CC1(C)S[C@@H]2[C@H](NC(=O)Cc3ccccc3)C(=O)N2[C@H]1C(=O)O [Penicillin G, penicillin G, reference compound] |  | 
 |  | C[C@@H]1O[C@@H]1P(=O)(O)O [fosfomycin, Fosfomycin] |  | IC50 (E. coli MurA): 69.8 µM
